From patent US20080194548A1, “Drug Combination Therapy and Pharmaceutical Compositions for Treating Inflammatory Disorders” (priority 2005, published 2008)

Experiments:
Female C57BL/6 mice = experiment: MOGp35-55-induced disease activity model in mice (oral gavage, daily disease activity score); assay type: in vivo; conditions: single agent; for maximal extent and duration of disease activity: compared with control animals; for onset of disease symptoms: low and high doses, compared to animals that receive vehicle
[1] = system: monocyte chemoattractant protein 1 (MCP1); conditions: human peripheral blood mononuclear cells or cultured endothelial cells; cited from earlier work
cytokine TNFα = conditions: microglia and astrocytes; cited from earlier work
[2] = system: inducible nitric oxide synthetase (i-NOS); conditions: microglia and astrocytes; cited from earlier work

Compound: CC(C)[C@]1(C(=O)N2COc3ccc(C(F)(F)F)cc3C2)CC[C@@H](N2CC[C@@H](c3cccc(C(=O)O)c3)[C@H](C)C2)C1 (single isomer, unassigned) [Compound 4, 3-[(3S,4R or 3R,4S)-1-((1R,3S)-3-Isopropyl-3-{[6-(trifluoromethyl)-2H-1,3-benzoxazin-3(4H)-yl]carbonyl}cyclopentyl)-3-methylpiperidin-4-yl]benzoic acid]
- maximal extent and duration of disease activity (Female C57BL/6 mice): reduced compared with control animals
- onset of disease symptoms (Female C57BL/6 mice): delayed in a dose-dependent manner

Compound: CO[C@@H]1COCC[C@@H]1N[C@@H]1CC[C@@](C(=O)N2CCc3ncc(C(F)(F)F)cc3C2)(C(C)C)C1 [Compound 1, N-((1R,3S)-3-isopropyl-3-{[3-(trifluoromethyl)-7,8-dihydro-1,6-naphthyridin-6(5H)-yl]carbonyl}cyclopentyl)-N-[(3S,4S)-3-methoxytetrahydro-2H-pyran-4-yl]amine]
- maximal extent and duration of disease activity (Female C57BL/6 mice): reduced compared with control animals
- onset of disease symptoms (Female C57BL/6 mice): delayed in a dose-dependent manner

Compound: CC[C@H](C)C(=O)O[C@H]1C[C@@H](C)C=C2C=C[C@H](C)[C@H](CC[C@@H]3C[C@@H](O)CC(=O)O3)[C@H]21 [Lovastatin, lovastatin]
- inhibition of MCP1 production [1]: inhibit
- inhibition of the cytokine TNFα (cytokine TNFα): inhibit
- inhibition of inducible nitric oxide synthetase (i-NOS) [2]: inhibit

Compound: CC(C)c1c(C(=O)Nc2ccccc2)c(-c2ccccc2)c(-c2ccc(F)cc2)n1CC[C@@H](O)C[C@@H](O)CC(=O)O [atorvastatin]
- maximal extent and duration of disease activity (Female C57BL/6 mice): reduced compared with control animals
- onset of disease symptoms (Female C57BL/6 mice): delayed in a dose-dependent manner
